Measurements: US5112845A, “Alpha-heterocycle substituted tolunitriles” (Ciba-Geigy Corporation, priority 1990, dated 1992)
Counter-ions that a name gives are not always drawn. Like-named read-outs stand apart in the source and are kept apart here.

How the values were obtained:
[1] = tested on: female rats; assay: in vivo antifertility property (implantation and/or fetal resorption) in rats; set-up: species or system rat (Sprague Dawley); details: Rattus norvegicus, po, administered as the fumarate or hemisuccinate salt, read-out: dose at which fertility is inhibited
Protocol: Mated female rats (Sprague Dawley) weighing approximately 180-200 g were obtained on the day of coitus. The presence of sperm in the vagina was used as a verification that mating had occurred. On the day of receipt, day of coitus or day 0 of `pregnancy`, the rats are divided into two groups of six to eight rats per group. One group is given various doses of the test compound p.o., suspended in 0.2 ml of carboxymethylcellulose (CMC) beginning on day 1 of `pregnancy` and continuing through day 9 of `pregnancy`. These same rats receive a daily injection of 0.1 ml of sesame oil s.c. over this same time frame. The second group of rats receive the vehicles, CMC p.o. and oil s.c., on days 1-9 of `pregnancy`. All of the rats are sacrificed on day 12 or 13 of `pregnancy`, and their uteri are exposed and examined for fetuses and/or resorption sites.

[2] = tested on: dimethylbenzanthracene (DMBA)-induced mammary tumors; assay: antitumor activity in DMBA-induced mammary tumors in rats; type: in vivo, female Sprague-Dawley rats; details: Rattus norvegicus, po, read-out: effective daily dose (antitumor)
Excerpt: Exp. Biol. Med. 160, 296-301 (1979)].

[3] = target: T1, aromatase (Homo sapiens, UniProt P11511); assay: in vitro inhibition of aromatase activity (human placental microsomes, aromatization of [1,2-^3 H]-androstenedione); type: biochemical; details: 20 minutes at 37° C
T1 construct: A microsomal fraction is prepared from human placenta by the method essentially as described by Thompson and Siiteri; from tissue; host or cells: human placenta, microsomal fraction (lyophilized)
T1 sequence (P11511 1-503): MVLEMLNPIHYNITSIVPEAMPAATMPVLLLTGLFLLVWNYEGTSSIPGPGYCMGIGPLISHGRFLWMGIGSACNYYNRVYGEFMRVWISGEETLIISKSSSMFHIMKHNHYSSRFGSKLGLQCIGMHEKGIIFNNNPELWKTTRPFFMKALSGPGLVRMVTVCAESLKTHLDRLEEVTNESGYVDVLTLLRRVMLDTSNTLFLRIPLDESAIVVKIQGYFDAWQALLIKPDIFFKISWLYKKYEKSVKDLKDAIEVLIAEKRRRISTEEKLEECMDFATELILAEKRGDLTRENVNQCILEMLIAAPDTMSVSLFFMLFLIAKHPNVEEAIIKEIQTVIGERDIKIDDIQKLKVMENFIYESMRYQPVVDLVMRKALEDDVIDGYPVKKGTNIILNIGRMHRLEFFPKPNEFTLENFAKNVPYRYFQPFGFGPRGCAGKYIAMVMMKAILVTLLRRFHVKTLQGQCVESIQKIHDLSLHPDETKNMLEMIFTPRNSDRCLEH
Protocol: The microsomal preparation so obtained is lyophilized and stored at -40° C.
The assay is conducted substantially as described by Thompson and Siiteri. The human placental microsomes are added to [1,2-^3 H]-androstenedioneand incubated for 20 minutes at 37° C. The amount of aromatization of the labelled substrate is detected by the […] of ^3 H2 O into the incubation medium. The substrate is removed by chloroform extraction, followed by adsorption to charcoal in suspension. The charcoal is removed by centrifugation and the steroid-free medium is counted in a liquid scintillation counter. Compounds are tested for aromatase inhibitory activity by adding them to the incubation medium prior to the addition of the microsomes. The relative cpm obtained with and without the inhibitor is used to calculate the percent inhibition of the aromatization of androstenedione to estrone.

[4] = tested on: estrogen synthesis; assay: in vivo inhibition of aromatase activity: inhibition of estrogen synthesis in rats (ovarian estrogen content); details: po, female rat, PMS/hCG and androstenedione treated; read-out: dose at which estrogen synthesis is inhibited
Protocol: Twenty-one-day-old female rats are injected subcutaneously with 10 IU pregnant mare serum gonadotropin (PMS). Two days later the same rats are injected subcutaneously with 30 IU human chorionic gonadrotropin (hCG). On the day following the hCG treatment the rats are injected subcutaneously with either propylene glycol (0.2 ml; […].) or with various doses of the test compound. […] Four hours after the injection of androstenedione the rats are sacrificed and their ovaries removed and trimmed free of adhering tissue and stored in pairs at -40° C. To determine the total estrogen content of the ovaries, 1.5 ml of 0.05M aqueous potassium phosphate buffer, pH 7.4, and 0.2 ml of 0.1N aqueous sodium hydroxide are added to the tissues which are then homogenized. The homogenate is extracted with 15 ml of diethyl ether, 5 ml aliquots are radioimmunoassayed with antiserum having 100% cross reactivity with estrone, estradiol and estriol. The ovarian estrogen content is expressed as ng estrogen/pair of ovaries. The inhibition of estrogen synthesis, indicative of aromatase inhibition, is calculated from the ovarian estrogen content in treated as compared to control animals.

[5] = tested on: female dogs; assay: prevention of proestrus and estrus in female dogs treated during anestrus; type: in vivo, dog; details: 10.0 mg/kg p.o. daily for 224 days, ten mature beagles during anestrus; controls exhibited proestrus and estrus at least once
Excerpt: (§1) Proestrus, for example in the bitch, commences with a vaginal discharge, followed by attraction of the male resulting from estrogen secretion and lasts on an average of 9 days. The females only permit mating during estrus. The compounds of the present invention, when administered to female dogs e.g. on the second day of proestrus, terminate all physical signs of proestrus andestrus and mating will be prevented.
(§2) For example, ten mature beagles during anestrus with known breeding histories were administered e.g. 10.0 mg/kg p.o. daily of the compound of example 46 for 224 days. […] Ten female beagles with known breeding histories were administered 10.0 mg/kg p.o. daily of the compound of example 46 for 91 days beginning on the first day proestrus was noted.

[6] = tested on: female dogs; assay: cessation of proestrus and estrus in female dogs treated from proestrus; type: in vivo, dog
Excerpt: as §1, §2

Compound: N#Cc1ccc(C(c2ccc(C#N)cc2)n2ccnc2)cc1 [Example 2a, 4-[alpha-(4-cyanophenyl)-1-imidazolylmethyl]-benzonitrile]
- minimal effective dose [1]: ~4000 µg/kg
- minimal effective dose [2]: ~0.1 mg/kg/day

Compound: N#Cc1ccc(C(c2cccnc2)n2ccnc2)cc1 (stereo not drawn) [Example 5e, 4-[alpha-(3-pyridyl)-1-imidazolylmethyl]-benzonitrile]
- IC50 [3]: ~16 nM
- minimal effective dose [4]: ~3 µg/kg

Compound: N#Cc1ccc(CC(c2ccc(C#N)cc2)n2ccnc2)cc1 (stereo not drawn) [Example 11f, 4-[alpha-(4-cyanobenzyl)-1-imidazolylmethyl]benzonitrile]
- IC50 [3]: ~3 nM
- minimal effective dose [4]: ~3 µg/kg

Compound: N#Cc1ccc(C(c2ccc(C#N)cc2)n2cncn2)cc1 [Example 20a, 4-[alpha-(4-cyanophenyl)-1-(1,2,4-triazolyl)-methyl]benzonitrile]
- minimal effective dose ([2]; daily, p.o., rats, DMBA-induced mammary tumors): ~0.03 mg/kg/day

Compound: N#Cc1ccc(C(c2cccnc2)n2ccnc2)cc1 (stereo not drawn) [Example 46, sulfate salt of 4-[alpha-(3-pyridyl)-1-imidazolylmethyl]benzonitrile]
- signs of proestrus [5]: No signs of proestrus were observed
- signs of proestrus ([6]; 10.0 mg/kg p.o. daily for 91 days beginning on first day of proestrus, ten female beagles): All signs of proestrus disappeared
- acceptance of a male ([6]; 10.0 mg/kg p.o. daily for 91 days, ten female beagles, male presented 9 and 11 days later): no dogs accepted a male
- proestrus during remainder of treatment ([6]; 10.0 mg/kg p.o. daily, remainder of the 91 days, ten female beagles): Proestrus was not observed
- acceptance of a male dog ([6]; 10.0 mg/kg p.o. daily, 9 and 11 days following the initial sign of proestrus): refused to accept a male dog
- dogs exhibiting estrus during recovery ([6]; 190 days recovery period after 91 days at 10.0 mg/kg p.o. daily): eight of ten dogs exhibited estrus
